Laboratory results from publication PMC2892419 (Biochemistry, 2010).

Legend:
Sgx9236b [1] = experiment: direct UV assay of deamination, […] nm; type: biochemical, Unknown prokaryotic organism (Sargasso Sea metagenome); settings: pH 8.5, 30 °C
Sgx9236b [2] = experiment: direct UV assay of deamination, […] nm; type: biochemical, Unknown prokaryotic organism (Sargasso Sea metagenome); settings: pH 8.5, 30 °C; remark: listed apart in the source

Row | SMILES | Km (Sgx9236b [1]) [µM] | Km (Sgx9236b [2]) [µM]
1 | Nc1nc2[nH]c(=O)cnc2c(=O)[nH]1 [I, isoxanthopterin] | 50 ± 10 | –
2 | Nc1nc2ncc(C(=O)O)nc2c(=O)[nH]1 [II, pterin-6-carboxylate] | – | 90 ± 30
